Each structure is given as a SMILES string.

Common to all, as to format: functional
The subject of experiment [1] is Rhynchophorus ferrugineus. The experiment in a line: Pesticidal activity against Rhynchophorus ferrugineus (red palm weevil) larvae assessed as mortality at 1 ppm, po at 24 hr post-treatment relative to control.
Experiment [2] relates to Rhynchophorus ferrugineus. Kind of experiment: Pesticidal activity against adult Rhynchophorus ferrugineus (red palm weevil) assessed as time required for reversible knockdown at 2.5 ml/l administered topically.
Experiment [3] deals with Rhynchophorus ferrugineus. The experiment in a line: Pesticidal activity against Rhynchophorus ferrugineus (red palm weevil) larvae assessed as mortality at 1.5 ppm, po at 72 hr post-treatment relative to control.
Experiment [4] has as its system Rhynchophorus ferrugineus. The experiment in a line: Pesticidal activity against Rhynchophorus ferrugineus (red palm weevil) larvae assessed as mortality at 100 ppm administered topically at 48 hr post-treatment.
Experiment [5] relates to Rhynchophorus ferrugineus. Kind of experiment: Pesticidal activity against Rhynchophorus ferrugineus (red palm weevil) larvae infested date palm trees assessed as mortality at 2.5 ml/l applied through soil-drench irrigation 1 week after infestation measured on day 30 post-treatment relative to control.
For experiment [6], the system named is Rhynchophorus ferrugineus. Kind of experiment: Contact toxicity against Rhynchophorus ferrugineus (red palm weevil) adults assessed as time required for 50% reversible knockdown at 3.5 ml/l for 2 min.
Experiment [7] deals with Rhynchophorus ferrugineus. Kind of experiment: Contact toxicity against Rhynchophorus ferrugineus (red palm weevil) adults assessed as time required for 50% reversible knockdown at 3.5 ml/l for 5 min.
The subject of experiment [8] is Rhynchophorus ferrugineus. Kind of experiment: Pesticidal activity against Rhynchophorus ferrugineus (red palm weevil) cocoons assessed as time required for total mortality at 3.5 ml/l administered by dipping for 5 secs.
Experiment [9] has as its system Rhynchophorus ferrugineus. The experiment in a line: Pesticidal activity against Rhynchophorus ferrugineus (red palm weevil) larvae assessed as mortality at 300 ppm administered topically at 48 hr post-treatment.
Experiment [10] has as its system Rhynchophorus ferrugineus. The experiment in a line: Pesticidal activity against adult Rhynchophorus ferrugineus (red palm weevil) assessed as mortality at 2 ppm, po at 18 hr post-treatment relative to control.
Experiment [11] deals with Rhynchophorus ferrugineus. The experiment in a line: Pesticidal activity against Rhynchophorus ferrugineus (red palm weevil) cocoon assessed as mortality at 2 ppm administered by dipping for 3 min measured at 114 hr post-treatment relative to control.
The subject of experiment [12] is Rhynchophorus ferrugineus. The experiment in a line: Pesticidal activity against Rhynchophorus ferrugineus (red palm weevil) larvae assessed as mortality at 500 ppm administered topically at 48 hr post-treatment.
In experiment [13] the test system is Rhynchophorus ferrugineus. The experiment in a line: Pesticidal activity against adult Rhynchophorus ferrugineus (red palm weevil) assessed as mortality at 0.5 ppm, po at 24 hr post-treatment relative to control.
Experiment [14] deals with Rhynchophorus ferrugineus. Kind of experiment: Contact toxicity against Rhynchophorus ferrugineus (red palm weevil) adults assessed as time required for 100% mortality at 1.5 ml/l for 2 min.
For experiment [15], the system named is Rhynchophorus ferrugineus. Kind of experiment: Pesticidal activity against adult Rhynchophorus ferrugineus (red palm weevil) assessed as mortality at 300 ppm administered topically at 48 hr post-treatment.
In experiment [16] the test system is Rhynchophorus ferrugineus. The experiment in a line: Pesticidal activity against Rhynchophorus ferrugineus (red palm weevil) larvae infested date palm tree assessed as mortality of collected live stage at 20 ml/4l of water applied through soil-drench irrigation measured at 3 weeks post-treatment within 48 hr after emergence relative to control.
Experiment [17] deals with Rhynchophorus ferrugineus. Kind of experiment: Contact toxicity against Rhynchophorus ferrugineus (red palm weevil) adults assessed as time required for 50% reversible knockdown at 1.5 ml/l for 2 min.
Experiment [18] deals with Rhynchophorus ferrugineus. Kind of experiment: Pesticidal activity against Rhynchophorus ferrugineus (red palm weevil) larvae assessed as mortality at 4 ppm, po at 114 hr post-treatment relative to control.

Turning to `O=[N+]([O-])/N=C1\NCCN1Cc1ccc(Cl)nc1` [IMIDACLOPRID], the Activity in [1] was 0%; in [3], 100%; in experiment [4] it was 0%; in experiment [5] it was 94.4%; in experiment [9], 0%; in experiment [10] it was 100%. The Activity turned out to be 72.2% in experiment [11]; 72.2% in [12]; 0% in [13]; 72.2% in experiment [15]; 100% in [16]; 100% in [18]. Also, the Time in experiment [2] was determined as 2 days; in experiment [6] it was 1.1 days; in experiment [7] it was 1.1 days; in experiment [8], 5.9 days; in experiment [14], 18 days; in experiment [17], 3.2 days.

Values taken from ChEMBL document CHEMBL3046274, “Toxicity of imidacloprid to developmental stages of Rhynchophorus ferrugineus (Curculionidae: Coleoptera): Laboratory and field tests” (Crop Prot, 2006).
